Source: PMC11040670, “Mechanistic and Kinetic Insights into Cellular Uptake of Biomimetic Dinitrosyl Iron Complexes and Intracellular Delivery of NO for Activation of Cytoprotective HO-1” (JACS Au, 2024)

What was measured:
Type in all cases: cell-based, human
HMOX1 gene = experiment: Real-time PCR of HMOX1 gene in MSC; conditions: at 3 h, 100 μM DNIC–COOH or 2.5 μM DNIC–COOMe
Protocol: After treatment of (1) 100 μM of DNIC–COOH to MSC, (2) 100 μM of DNIC–COOH to N2a, (3) 75 μM of DNIC–COOH to HCEC, (4) 2.5 μM of DNIC–COOMe to MSC, (5) 10 μM of DNIC–COOMe to N2a, and (6) 1 μM of DNIC–COOMe to HCEC, respectively, the total RNA of the treated cells was extracted using TRIzol Reagent (Thermo Fisher Scientific) in order to assess the time-dependent change in the mRNA level of HO-1. After the synthesis of complementary DNA with the High-Capacity Reverse Transcription Kit, qPCR was conducted using Power SYBR Green PCR Master Mix with the StepOnePlus Real-Time PCR System (Thermo Fisher Scientific). […] The relative mRNA levels of target genes were determined by a comparative threshold cycle method and normalized to that of RPL13A (or GAPDH). The mRNA level of HO-1 in the MSC, N2a, and HCEC cells, respectively, that received the (1) sequential treatments of 1H-[1,2,4]oxadiazolo-[4,3-a]quinoxalin-1-one (ODQ, 10 μM for 1 h) and DNIC–COOH (100 μM in MSC for 3 h, 100 μM in N2a for 10 h, and 75 μM in HCEC for 6 h) or (2) cotreatment of 2-phenyl-4,4,5,5-tetramethylimidazoline-1-oxyl-3-oxide (PTIO, 100 μM in MSC, 200 μM in N2a, and 100 μM in HCEC) and DNIC–COOH (100 μM in MSC for 3 h, 100 μM in N2a for 10 h, and 75 μM in HCEC for 6 h) was also evaluated under a similar procedure.

HO-1 protein = experiment: ELISA of intracellular HO-1 protein in MSC
Protocol: After the treatments of DNIC–COOH/DNIC–COOMe to the MSC cells following the procedure described above, the intracellular level of HO-1 protein in DNIC-treated MSC cells was also determined by ELISA (Abcam, Cambridge, MA) according to the manufacturers’ protocols.

HCEC = experiment: Cytoprotection of HCEC against H2O2 oxidative stress; conditions: HCEC pretreated 24 h with 75 μM DNIC–COOH, then H2O2
Protocol: Cell viability study of MSC, N2a, and HCEC cells with or without the treatment of DNIC–COOH was performed using a Cell Counting Kit-8 (IMT Formosa New Materials Co., Ltd., Taiwan) according to the manufacturer’s protocol. Briefly, cells were seeded into a 96-well plate at a density of 4 × 10^3 cells/well for MSC, 1 × 10^4 cells/well for N2a, and 8 × 10^3 cells/well for HCEC, respectively, and incubated overnight. On the next day, cells were treated with DNIC–COOH at different concentrations and incubated for 24 h. The culture medium was then removed before the cells were washed with DPBS. After addition of fresh medium containing CCK-8 solution to the cells and incubation for 1–3 h, the absorbance at 450 nm was then measured on a microplate reader (SpectraMax iD3, Molecular Devices, San Jose, CA) with a reference wavelength of 650 nm. […]
To investigate the capacity of DNIC preconditioning to protect the MSC cells against elevated oxidative stress, cells were pretreated with 2.5 μM of DNIC–COOMe or 100 μM of DNIC–COOH for 8 h before being incubated with 250 μM H2O2 for another 24 h. Cell viability was evaluated by live/dead staining or CCK-8 assay. In a similar manner, DNIC-induced cytoprotective effect in HCECs was evaluated through pretreatment of 1 μM of DNIC–COOMe or 75 μM of DNIC–COOH for 24 h.

Compound | activation of HMOX1 gene (HMOX1 gene) | expression of HO-1 protein (HO-1 protein; at 8 h, 100 μM DNIC–COOH) | survival under mimic oxidative stress condition (HCEC) | expression of HO-1 protein (HO-1 protein; at 6 h, 2.5 μM DNIC–COOMe)
O=[N][Fe]1([N]=O)[SH](CCC(=O)O)[Fe]([N]=O)([N]=O)[SH]1CCC(=O)O (centres unmarked) [DNIC–COOH, [(NO)2Fe(μ-SCH2CH2COOH)2Fe(NO)2]] | 49.5 ± 2.9 fold | 32.0 ± 4.4 fold | enhanced survival | –
COC(=O)CC[SH]1[Fe]([N]=O)([N]=O)[SH](CCC(=O)OC)[Fe]1([N]=O)[N]=O (centres unmarked) [DNIC–COOMe, [(NO)2Fe(μ-SCH2CH2COOCH3)2Fe(NO)2]] | 18.8 ± 2.3 fold | – | – | 8.1 ± 0.9 fold
